Experimental findings from US20240376100A1 (Redona Therapeutics, Inc., priority 2021, published 2024) are described below.

Counter-ions that a name gives are not always drawn.

The assay has as its target PAPD5 enzyme (Homo sapiens, UniProt Q8NDF8). Briefly: PAPD5 assay (AMP incorporation onto 3'-terminus of RNA substrate, fluorescence quench). Type of assay: biochemical. Conditions: PAPD5 protein 0.3 nM, ATP 50 μM, 30 minutes preincubation, room temperature; read-out: Potency PAPD5 IC50. The protocol:
The purpose of the PAPD5 assay is to determine compound potency against PAPD5 enzyme through the measurement of IC50. Compound inhibition is measured as a function of AMP incorporation onto the 3′-terminus of an RNA substrate in the presence of active PAPD5, ATP, and inhibitor. The PAPD5 assay was done in a black, non-binding, 384 well plate (Corning #3575). All steps were performed at room temperature. For a typical assay, a 40 ul aliquot of assay buffer (50 mM HEPES pH 7.3, 20 mM KCl, 10 mM MgCl2, 10 mMM DTT, 0.01% Triton X-100, 40 U/ml RNAsin (Promega)) containing PAPD5 protein (final 10 concentration: 0.3 nM) and ATP (final concentration 50 μM) was added to each well. Next, 1 ul of compound in 100% DMSO is transferred from a compound dilution plate in which the compound is serially diluted. The plate was placed on a plate shaker for 30 seconds to produce mixing, then incubated for 30 minutes. Next, 10 ul of a 5× mix of RNA substrate (5′-fluorescein-AUAGAG-3′ (IDT)) and a DNA oligonucleotide that is complementary to the AMP modified RNA product (5′-TCTCTATT-3′-TAMRA, wherein the first two nucleotides are locked nucleic acids (IDT)) was added (final concentrations: 5 nM and 20 nM, respectively). The plate was placed on a plate shaker for 30 seconds to produce mixing then immediately placed in a Biotek Cytation 5 plate reader, and the time-dependent decrease in fluorescein fluorescence resulting from annealing of the TAMRA labeled quenching probe was recorded, using the kinetics mode of the reader (typical run time is 90 minutes). Reaction rates were obtained using linear fits to the early portion of progress curves. IC50 values were calculated using a four-parameter fit with 100% enzyme activity determined from the DMSO control and 0% activity from control samples lacking UTP.
“+” represents an IC50 value that is greater than 50 PM; “++” represents an IC50 value that is greater than 10 μM and equal to or less than 50 μM; “+++” represents an IC50 value that is greater than 1 μM and equal to or less than 10 μM; and “++++” represents an IC50 value that is equal to or less than 1 μM.

PAPD5 enzyme, sequence (Q8NDF8 whole entry): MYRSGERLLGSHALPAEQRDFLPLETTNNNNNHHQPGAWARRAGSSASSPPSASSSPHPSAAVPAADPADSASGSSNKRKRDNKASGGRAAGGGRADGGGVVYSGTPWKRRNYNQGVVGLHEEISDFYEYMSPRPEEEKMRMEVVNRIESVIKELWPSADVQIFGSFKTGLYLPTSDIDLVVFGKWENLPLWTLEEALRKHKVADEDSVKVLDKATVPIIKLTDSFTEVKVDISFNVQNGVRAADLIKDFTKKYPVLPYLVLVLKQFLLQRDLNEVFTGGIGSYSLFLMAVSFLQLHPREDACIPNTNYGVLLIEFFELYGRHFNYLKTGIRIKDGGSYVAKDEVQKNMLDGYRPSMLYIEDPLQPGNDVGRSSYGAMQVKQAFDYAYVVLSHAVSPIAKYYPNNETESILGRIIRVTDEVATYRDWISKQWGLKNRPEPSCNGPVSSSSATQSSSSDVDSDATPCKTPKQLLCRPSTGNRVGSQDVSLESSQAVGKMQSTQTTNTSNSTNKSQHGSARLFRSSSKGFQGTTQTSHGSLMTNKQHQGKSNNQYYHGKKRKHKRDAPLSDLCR

For the compound `O=C(O)c1cn(C2CCNCC2)c2cc(N3Cc4cccnc4C3)c(Cl)cc2c1=O` [Example 123, 6-chloro-7-(5,7-dihydro-6H-pyrrolo[3,4-b]pyridin-6-yl)-4-oxo-1-(piperidin-4-yl)-1,4-dihydroquinoline-3-carboxylic acid hydrochloride], the half-maximal inhibitory concentration (IC50) (commonly the concentration needed to halve the response being measured) was at most 1000 nM.

Regarding `O=C(O)c1cn(-c2ccc(O)c(F)c2)c2cc(N3Cc4cccnc4C3)c(F)cc2c1=O` [Example 28, 7-(5,7-dihydro-6H-pyrrolo[3,4-b]pyridin-6-yl)-6-fluoro-1-(3-fluoro-4-hydroxyphenyl)-4-oxo-1,4-dihydroquinoline-3-carboxylic acid], the half-maximal inhibitory concentration (IC50) was at most 1000 nM.

Turning to `N#Cc1cc2c(=O)c(C(=O)O)cn(CC3CCCC3)c2nc1N1Cc2cccnc2C1` [Example 62, 6-cyano-1-(cyclopentylmethyl)-7-(5,7-dihydro-6H-pyrrolo[3,4-b]pyridin-6-yl)-4-oxo-1,4-dihydro-1,8-naphthyridine-3-carboxylic acid], the IC50 is at most 1000 nM.

As for `Cc1cc(NC(=O)C2CC2)ncc1-n1cc(C(=O)O)c(=O)c2cc(Cl)c(N3Cc4cccnc4C3)cc21` [Example 114, 6-chloro-1-(6-(cyclopropanecarboxamido)-4-methylpyridin-3-yl)-7-(5,7-dihydro-6H-pyrrolo[3,4-b]pyridin-6-yl)-4-oxo-1,4-dihydroquinoline-3-carboxylic acid], the 50% inhibitory concentration (IC50) was at most 1000 nM.

Take `CCOC(=O)c1cn(-c2ccc(O)nc2)c2cc(N3Cc4cccnc4C3)c(Cl)cc2c1=O` [Example 88, Ethyl 6-chloro-1-(6-hydroxypyridin-3-yl)-4-oxo-7-{5H,7H-pyrrolo[3,4-b]pyridin-6-yl}quinoline-3-carboxylate]: the concentration for half-maximal inhibition (IC50) is at most 1000 nM.

For `CCc1cc(N)ncc1-n1cc(C(=O)O)c(=O)c2cc(Cl)c(N3Cc4cccnc4C3)cc21` [Example 117, 1-(6-amino-4-ethylpyridin-3-yl)-6-chloro-7-(5,7-dihydro-6H-pyrrolo[3,4-b]pyridin-6-yl)-4-oxo-1,4-dihydroquinoline-3-carboxylic acid], the IC50 was at most 1000 nM.

With `O=C(O)c1cn(-c2ccc(O)c(F)c2)c2cc(N3Cc4ccccc4C3)c(F)cc2c1=O` [Example 31, 6-fluoro-1-(3-fluoro-4-hydroxyphenyl)-7-(isoindolin-2-yl)-4-oxo-1,4-dihydroquinoline-3-carboxylic acid], the IC50 was at most 1000 nM.

In the case of `O=C(O)c1cn(C2CCN(C(=O)c3ccccc3)CC2)c2cc(N3Cc4cccnc4C3)c(Cl)cc2c1=O` [Example 84, 1-(1-benzoylpiperidin-4-yl)-6-chloro-7-(5,7-dihydro-6H-pyrrolo[3,4-b]pyridin-6-yl)-4-oxo-1,4-dihydroquinoline-3-carboxylic acid], the 50% inhibitory concentration (IC50) was at most 1000 nM.

Consider `O=C(O)c1cn(-c2ccc(O)cc2)c2cc(N3Cc4cccnc4C3)c(F)cc2c1=O` [Example 18, 7-(5,7-dihydro-6H-pyrrolo[3,4-b]pyridin-6-yl)-6-fluoro-1-(4-hydroxyphenyl)-4-oxo-1,4-dihydroquinoline-3-carboxylic acid], for which the IC50 is at most 1000 nM.

With `Cc1cc(N)ncc1-n1cc(C(=O)O)c(=O)c2cc(Cl)c(N3Cc4cccnc4C3)nc21` [Example 78, 1-(6-amino-4-methylpyridin-3-yl)-6-chloro-7-(5,7-dihydro-6H-pyrrolo[3,4-b]pyridin-6-yl)-4-oxo-1,4-dihydro-1,8-naphthyridine-3-carboxylic acid TFA salt], the half-maximal inhibitory concentration (IC50) was at most 1000 nM.

Turning to `Cc1cc(N)ncc1-n1cc(C(=O)O)c(=O)c2cc(F)c(N3Cc4cccnc4C3)nc21` [Example 77, 1-(6-amino-4-methylpyridin-3-yl)-7-(5,7-dihydro-6H-pyrrolo[3,4-b]pyridin-6-yl)-6-fluoro-4-oxo-1,4-dihydro-1,8-naphthyridine-3-carboxylic acid TFA salt], the IC50 was at most 1000 nM.

Consider `Cc1cc(N)ncc1-n1cc(C(=O)O)c(=O)c2cc(Cl)c(N3Cc4cccnc4C3)cc21` [Example 5, 1-(6-amino-4-methylpyridin-3-yl)-6-chloro-4-oxo-7-{5H,6H,7H-pyrrolo[3,4-b]pyridin-6-yl}-1,4-dihydroquinoline-3-carboxylicacid hydrochloride], for which the IC50 was at most 1000 nM.

Regarding `Cc1cc(NC(=O)N(C)C)ncc1-n1cc(C(=O)O)c(=O)c2cc(Cl)c(N3Cc4cccnc4C3)cc21` [Example 116, 6-chloro-7-(5,7-dihydro-6H-pyrrolo[3,4-b]pyridin-6-yl)-1-(6-(3,3-dimethylureido)-4-methylpyridin-3-yl)-4-oxo-1,4-dihydroquinoline-3-carboxylic acid], the 50% inhibitory concentration (IC50) was at most 1000 nM.

Consider `COCCN(C)c1cc2c(cc1Cl)c(=O)c(C(=O)O)cn2-c1cnc(N)cc1C` [Example 132, 1-(6-amino-4-methylpyridin-3-yl)-6-chloro-7-((2-methoxyethyl)(methyl)amino)-4-oxo-1,4-dihydroquinoline-3-carboxylic acid], for which the IC50 was at most 1000 nM.

As for `N#Cc1cc2c(=O)c(C(=O)O)cn(-c3ccc(O)nc3)c2cc1N1Cc2cccnc2C1` [Example 56, 6-cyano-7-(5,7-dihydro-6H-pyrrolo[3,4-b]pyridin-6-yl)-1-(6-hydroxypyridin-3-yl)-4-oxo-1,4-dihydroquinoline-3-carboxylic acid], the IC50 was at most 1000 nM.

Regarding `Cc1nn(-c2cc3c(cc2F)c(=O)c(C(=O)O)cn3-c2ccc(O)cc2F)cc1Br` [Example 11, 7-(4-bromo-3-methyl-1H-pyrazol-1-yl)-6-fluoro-1-(2-fluoro-4-hydroxyphenyl)-4-oxo-1,4-dihydroquinoline-3-carboxylic acid], the IC50 was at most 1000 nM.

With `COc1cnc(-n2cc(C(=O)O)c(=O)c3cc(F)c(N4Cc5cccnc5C4)cc32)cn1` [Example 75, 7-(5,7-dihydro-6H-pyrrolo[3,4-b]pyridin-6-yl)-6-fluoro-1-(5-methoxypyrazin-2-yl)-4-oxo-1,4-dihydroquinoline-3-carboxylic acid], the half-maximal inhibitory concentration (IC50) is at most 1000 nM.

For `Cc1cc(N2CC(N(C)C)C2)ncc1-n1cc(C(=O)O)c(=O)c2cc(Cl)c(N3Cc4cccnc4C3)cc21` [Example 25, 6-chloro-7-(5,7-dihydro-6H-pyrrolo[3,4-b]pyridin-6-yl)-1-(6-(3-(dimethylamino)azetidin-1-yl)-4-methylpyridin-3-yl)-4-oxo-1,4-dihydroquinoline-3-carboxylic acid], the IC50 was at most 1000 nM.

With `Cc1cc(N)ncc1-n1cc(C(=O)O)c(=O)c2ccc(N3Cc4ccccc4C3)c(F)c21` [Example 155, 1-(6-amino-4-methylpyridin-3-yl)-8-fluoro-7-(isoindolin-2-yl)-4-oxo-1,4-dihydroquinoline-3-carboxylic acid], the concentration for half-maximal inhibition (IC50) is at most 1000 nM.

As for `CN(C)C(=O)N1CCC(n2cc(C(=O)O)c(=O)c3cc(Cl)c(N4Cc5cccnc5C4)cc32)CC1` [Example 130, 6-chloro-7-(5,7-dihydro-6H-pyrrolo[3,4-b]pyridin-6-yl)-1-(1-(dimethylcarbamoyl)piperidin-4-yl)-4-oxo-1,4-dihydroquinoline-3-carboxylic acid], the half-inhibitory concentration (IC50) is at most 1000 nM.

For `Cc1cc(NC(=O)OC(C)(C)C)ncc1-n1cc(C(=O)O)c(=O)c2cnc(N3Cc4cccnc4C3)cc21` [Example 150, 1-(6-((tert-butoxycarbonyl)amino)-4-methylpyridin-3-yl)-7-(5,7-dihydro-6H-pyrrolo[3,4-b]pyridin-6-yl)-4-oxo-1,4-dihydro-1,6-naphthyridine-3-carboxylic acid], the half-maximal inhibitory concentration (IC50) was at most 1000 nM.

Consider `O=C(O)c1cn(CC2CCC2)c2cc(N3Cc4cccnc4C3)c(Cl)cc2c1=O` [Example 33, 6-chloro-1-(cyclobutylmethyl)-7-(5,7-dihydro-6H-pyrrolo[3,4-b]pyridin-6-yl)-4-oxo-1,4-dihydroquinoline-3-carboxylic acid], for which the 50% inhibitory concentration (IC50) was at most 1000 nM.

Regarding `Cc1cc(N)ncc1-n1cc(C(=O)O)c(=O)c2cc(Cl)c(N3Cc4ccc(F)cc4C3)nc21` [Example 160, 1-(6-amino-4-methylpyridin-3-yl)-6-chloro-7-(5-fluoroisoindolin-2-yl)-4-oxo-1,4-dihydro-1,8-naphthyridine-3-carboxylic acid], the half-maximal inhibitory concentration (IC50) was at most 1000 nM.

Take `Cc1cc(N)ncc1-n1cc(C(=O)O)c(=O)c2cc(Cl)c(-n3cccn3)nc21` [Example 153, 1-(6-amino-4-methylpyridin-3-yl)-6-chloro-4-oxo-7-(1H-pyrazol-1-yl)-1,4-dihydro-1,8-naphthyridine-3-carboxylic acid]: the IC50 is at most 1000 nM.

As to `O=C(O)c1cn(-c2ccc(O)cc2)c2cc(N3Cc4ccncc4C3)c(F)cc2c1=O` [Example 19, 7-(1,3-dihydro-2H-pyrrolo[3,4-c]pyridin-2-yl)-6-fluoro-1-(4-hydroxyphenyl)-4-oxo-1,4-dihydroquinoline-3-carboxylic acid], the IC50 was at most 1000 nM.
